Test results published in patent US6579882B2, “Cell adhesion-inhibiting antiinflammatory compounds” (Abbott Laboratories, priority 1998, dated 2003).

Legend:
[1] = tested on: E-Selectin; assay: CAM ELISA: E-selectin expression on TNF-stimulated HUVECs; type: cell-based; conditions: 1 μM compound, primary human umbilical vein endothelial cells, compound 24 hours, then TNF 5 ng/mL 6 hours
Description: (§1) Pooled primary human umbilical vein endothelial cells (HtVEC's) (Clonetics) between passages 3 and 7 were plated in 96-well plates (Costar), 100 μL/well, 5×10^4 cells/mL in Clonetics EBM/2% FBS/EGF/Bovine brain extract/gentamicin in the absence of hydrocortisone. The following day, compounds of the invention were added in 10 μL/well medium, and the plates were incubated at 37° C. 24 hours after compound addition, TNF (Gibco/BRL) in 10 μL/well medium was added to a final concentration of 5 ng/mL, and the cells were incubated an additional 6 hours at 37° C. Then media was removed, and the plates were washed once with D-PBS (Gibco/BRL) and treated with primary antibodies (Becton Dickinson, City), 100 μL/well in D-PBS/2% BSA (Sigma)/0.01% azide. Primary antibodies at an initial concentration of 1 mg/mL were used at the following dilutions: anti-ELAM-1, 1:2000, anti-ICAM-1, 1:2000 and anti-VACM-1, 1:3000. Plates were stored overnight at 4° C., washed 3 times with D-PBS, and treated with secondary antibody (Jackson Labs), 100 μL/well 1:8000 dilution HRP-conjugated donkey anti-mouse IgG(H+L) in D-PBS/2%BSA. Plates were incubated a minimum of 1 hour at room temperature, washed 3 times with D-PBS and treated with 100 μL of orhto-phenylene diamine-2 HCl reagent per well. Plates were developed approximately 15 minutes and neutralized with 100 μL/well 1N sulfuric acid. Absorbance was read at 490 nm.

[2] = tested on: ICAM-1; assay: CAM ELISA: ICAM-1 expression on TNF-stimulated HUVECs; type: cell-based; conditions: 1 μM compound, primary human umbilical vein endothelial cells, compound 24 hours, then TNF 5 ng/mL 6 hours
Description: as §1

[3] = tested on: VCAM-1; assay: CAM ELISA: VCAM-1 expression on TNF-stimulated HUVECs; type: cell-based; conditions: 1 μM compound, primary human umbilical vein endothelial cells, compound 24 hours, then TNF 5 ng/mL 6 hours
Description: as §1

melting point | Molecule | further results
– | 4-(4-Chlorobenzoyl)-N-methylthieno[2,3-c]pyridine-2-carboxamide [Example 237I] | CAM ELISA % Inhibition at 1 μM E-Selectin [1]: 71%; CAM ELISA % Inhibition at 1 μM ICAM-1 [2]: 77%; CAM ELISA % Inhibition at 1 μM VCAM-1 [3]: 54%
– | Cc1ccc(Sc2cncc3sc(C(N)=O)cc23)cc1 [Example 19, 4-[(4-methylphenyl)thio]thieno[2,3-c]pyridine-2-carboxamide] | inhibition at 1 µM ([1]; Homo sapiens, Endothelial cell): 79%; inhibition at 1 µM ([2]; Homo sapiens, Endothelial cell): 67%; inhibition at 1 µM ([3]; Homo sapiens, Endothelial cell): 41%
– | Cc1ccc(Sc2c(/C=C/C(N)=O)sc3cnccc23)cc1 [Example 32] | CAM ELISA % Inhibition at 1 μM E-Selectin [1]: 75%; CAM ELISA % Inhibition at 1 μM ICAM-1 [2]: 63%; CAM ELISA % Inhibition at 1 μM VCAM-1 [3]: 41%
– | Cc1occc1Sc1cncc2sc(C(N)=O)cc12 [Example 53, 4-[(2-methyl-3-fiuranyl)thio]thieno[2,3-c]piridine-2-carboxamide] | CAM ELISA % Inhibition at 1 μM E-Selectin [1]: 70%; CAM ELISA % Inhibition at 1 μM ICAM-1 [2]: 67%; CAM ELISA % Inhibition at 1 μM VCAM-1 [3]: 48%
202 to 204 °C | NC(=O)c1sc2cncc(Oc3ccc(Cl)cc3)c2c1N [Example 131, 3-amino-4-(4-chlorophenoxy)thieno[2,3-c]pyridine-2-carboxamide] | –
280 to 282 °C | Cc1ccc(Sc2ccnc3sc(C(N)=O)cc23)cc1 [Example 132D, 4-[(4-methylphenyl)thio]thieno[2,3-b]pyridine-2-carboxamide] | –
199 to 202 °C | O=C(Nc1ccc(Cl)cc1)c1cnc2sccc2c1Cl [Example 133, 4-chloro-N-(4-chlorophenyl)thieno[2,3-b]pyridine-5-carboxamide] | –
93 to 94 °C | CCOC(=O)c1cnc2sccc2c1Sc1nnc(C)s1 [Example 134, ethyl 4-[(5-methyl-1,3,4-thiadiazol-2-yl)thio]thieno[2,3-b]pyridine-5-carboxylate] | –
76 to 77 °C | O=C(NCC(O)CO)c1cc2c(Oc3ccc(Br)cc3)cncc2s1 (stereo not drawn) [Example 149, 4-(4-Bromophenoxy)-N-(2,3-dihydroxypropyl)thieno[2,3-c]pyridine-2-carboxamide] | –
111 to 114 °C | NCCNC(=O)c1cc2c(Oc3ccc(Cl)cc3)cncc2s1 [Example 154, N-(2-Aminoethyl)-4-(4-chlorophenoxy)thieno[2,3-c]pyridine-2-carboxamide] | –
222 to 225 °C | NC(=O)CNC(=O)c1cc2c(Oc3ccc(Cl)cc3)cncc2s1 [Example 160, N-(2-Amino-2-oxoethyl)-4-(4-chlorophenoxy)thieno[2,3-c]pyridine-2-carboxamide] | –
93 to 95 °C | CN(C)C(=O)c1cc2c(Oc3ccc(Br)cc3)cncc2s1 [Example 172, 4-(4-Bromophenoxy)-N,N-dimethylthieno[2,3-c]pyridine-2-carboxamide] | –
74 to 76 °C | CN(C)C(=O)c1cc2c(Oc3ccc(C(F)(F)F)cc3)cncc2s1 [Example 173, N,N-Dimethyl-4-[4-(trifluoromethyl)phenoxy]thieno[2,3-c]pyridine-2-carboxamide] | –
185 to 187 °C | CCc1cc(Oc2cncc3sc(C(N)=O)cc23)ccc1Cl [Example 176, 4-(4-Chloro-3-ethylphenoxy)thieno[2,3-c]pyridine-2-carboxamide] | –
207 to 209 °C | NC(=O)c1cc2c(Oc3cccc(F)c3F)cncc2s1 [Example 178, 4-(2,3-Difluorophenoxy)thieno[2,3-c]pyridine-2-carboxamide] | –
169 to 171 °C | CNC(=O)c1cc2c(Oc3cccc(F)c3F)cncc2s1 [Example 179, 4-(2,3-Difluorophenoxy)-N-methylthieno[2,3-c]pyridine-2-carboxamide] | –
194 to 195 °C | CNC(=O)c1cc2c(Oc3cccc(F)c3)cncc2s1 [Example 180, 4-(3-Fluorophenoxy)-N-methylthieno[2,3-c]pyridine-2-carboxamide] | –
170 to 171 °C | CNC(=O)c1cc2c(Oc3ccc(F)c(F)c3F)cncc2s1 [Example 181, N-Methyl-4-(2,3,4-trifluorophenoxy)thieno[2,3-c]pyridine-2-carboxamide] | –
218 to 219 °C | NC(=O)c1cc2c(Oc3ccc(F)c(F)c3F)cncc2s1 [Example 182, 4-(2,3,4-Trifluorophenoxy)thieno[2,3-c]pyridine-2-carboxamide] | –
80 to 81 °C | C=Cc1ccc(Oc2cncc3sc(C(=O)N(C)C)cc23)cc1 [Example 185, N,N-Dimethyl-4-(4-vinylphenoxy)thieno[2,3-c]pyridine-2-carboxamide] | –

melting point | Molecule | further results
195 to 196 °C | CNC(=O)c1cc2c(Oc3ccc(COC4CCCCO4)cc3)cncc2s1 (stereo not drawn) [Example 199, N-Methyl-4-{4-[(tetrahydro-2H-pyran-2-yloxy)methyl]phenoxy}thieno[2,3-c]pyridine-2-carboxamide] | –
180 to 182 °C | NC(=O)c1cc2c(Oc3ccc(COC(=O)c4ccco4)cc3)cncc2s1 [Example 200, 4-[[2-(Aminocarbonyl)thieno[2,3-c]pyridin-4-yl]oxy}benzyl 2-furoate] | –
126 to 128 °C | CON=C(C)c1cc2c(Oc3ccc(Cl)cc3)cncc2s1 [Example 243A, 1-[4-(4-Chlorophenoxy)thieno[2,3-c]pyridin-2-yl]-1-ethanone O-methyloxime] | –
195 to 198 °C (dec.) | CCC(=NO)c1cc2c(Oc3ccc(Cl)cc3)cncc2s1 [Example 246, 1-[4-(4-Chlorophenoxy)thieno[2,3-c]pyridin-2-yl]-1-propanone oxime] | –
140 to 142 °C | N#Cc1cc2c(Oc3ccc(Cl)cc3)cncc2s1 [Example 248, 4-(4-Chlorophenoxy)thieno[2,3-c]pyridine-2-carbonitrile] | –
265 to 268 °C | N#CN=C(N)c1cc2c(Oc3ccc(Cl)cc3)cncc2s1 [Example 250, 4-(4-Chlorophenoxy)-N′-cyanothieno[2,3-c]pyridine-2-carboximidamide] | –
152 to 154 °C | Nc1ccccc1C(=O)c1cc2c(Oc3ccc(Cl)cc3)cncc2s1 [Example 251, (2-Aminophenyl)[4-(4-chlorophenoxy)thieno[2,3-c]pyridin-2-yl]methanone] | –
78.6 to 79.8 °C | NCc1cc2c(Oc3ccc(Cl)cc3)cncc2s1 [Example 256, [4-(4-Chlorophenoxy)thieno[2,3-c]pyridin-2-yl]methanamine] | –
202 to 204 °C | NC(=O)NCc1cc2c(Oc3ccc(Cl)cc3)cncc2s1 [Example 258, N-1[4-(4-Chlorophenoxy)thieno[2,3-c]pyridin-2-yl]methyl urea] | –
213 to 215 °C | Oc1ccc(-c2cc3c(Oc4ccc(Cl)cc4)cncc3s2)cc1 [Example 270, 4-[4-(4-Chlorophenoxy)thieno[2,3-c]pyridin-2-yl]phenol] | –
178 to 182 °C | Nc1ccc(-c2cc3c(Oc4ccc(Cl)cc4)cncc3s2)cc1 [Example 272, 4-[4-(4-Chlorophenoxy)thieno[2,3-c]pyridin-2-yl]aniline] | –
> 270 °C | Nc1nnc(-c2cc3c(Oc4ccc(Cl)cc4)cncc3s2)[nH]1 [Example 277, 5-[4-(4-Chlorophenoxy)thieno[2,3-c]pyridin-2-yl]-4H-1,2,4-triazol-3-amine] | –
101 to 103 °C | Clc1ccc(Oc2cncc3sc(-c4cccs4)cc23)cc1 [Example 292, 4-(4-Chlorophenoxy)-2-(2-thienyl)thieno[2,3-c]pyridine] | –
215 to 218 °C | NC(=O)c1csc(-c2cc3c(Oc4ccc(Cl)cc4)cncc3s2)n1 [Example 293, 2-[4-(4-Chlorophenoxy)thieno[2,3-c]pyridin-2-yl]-1,3-thiazole-4-carboxamide] | –
158 to 160 °C (dec.) | Clc1ccc(Oc2cncc3sc(C4=NCCO4)cc23)cc1 [Example 296, 4-(4-Chlorophenoxy)-2-(4,5-dihydro-1,3-oxazol-2-yl)thieno[2,3-c]pyridine] | –
154 to 155 °C | Clc1ccc(Oc2cncc3sc(C4=NCCN4)cc23)cc1 [Example 298, 4-(4-Chlorophenoxy)-2-(4,5-dihydro-1H-imidazol-2-yl)thieno[2,3-c]pyridine] | –
177 to 178 °C | Cc1c(C(N)=O)sc2cncc(Oc3ccc(Br)cc3)c12 [Example 304, 4-(4-Bromophenoxy)-3-methylthieno[2,3-c]pyridine-2-carboxamide] | –
175 to 176 °C | NC(=O)c1cc2c(Oc3ccc(C(F)(F)F)cc3)cnc(Cl)c2s1 [Example 318, 7-Chloro-4-[4-(trifluoromethyl)phenoxy]thieno[2,3-c]pyridine-2-carboxamide] | –
178 to 179 °C | CNC(=O)c1cc2c(Oc3ccc(C(F)(F)F)cc3)cnc(Cl)c2s1 [Example 319, 7-Chloro-N-methyl-4-[4-(trifluoromethyl)phenoxy]thieno[2,3-c]pyridine-2-carboxamide] | –
> 250 °C | NC(=O)c1cc2c(Oc3ccc(Cl)cc3)c[nH]c(=O)c2s1 [Example 323, 4-(4-Chlorophenoxy)-7-oxo-6,7-dihydrothieno[2,3-c]pyridine-2-carboxamide] | –
